How the values were obtained:
[1] = target: T1, recombinantly expressed His-tagged protein corresponding to amino acids 575-869 of human Tyk2 (Homo sapiens, UniProt P29597); experiment: Probe displacement assay (scintillation proximity, radiolabeled probe); format: binding
T1 construct: made in house
Experimental: The probe displacement assay is conducted as follows: In a […], test compounds along with recombinantly expressed His-tagged protein corresponding to amino acids 575-869 of human Tyk2 (sequence shown below) at 2.5 nM, 40 nM ((R)—N-(1-(3-(8-methyl-5-(methylamino)-8H-imidazo[4,5-d]thiazolo[5,4-b]pyridin-2-yl)phenyl)ethyl)-2-([^3H]methylsulfonyl)benzamide) (preparation described below) and 80 μg/mL Copper His-Tag scintillation proximity assay beads (Perkin Elmer, Catalog #RPNQ0095) in 50 mM HEPES, pH 7.5, containing 100 μg/mL bovine serum albumin and 5% DMSO were incubated for 30 minutes at room temperature. […] The IC50 value is defined as the concentration of test compound required to inhibit radiolabeled probe binding by 50%.
Protein Sequence of recombinant Hig-tagged Tyk2 (575-869):
The preparation of radiolabeled probe, (R)—N-(1-(3-(8-methyl-5-(methylamino)-8H-imidazo[4,5-d]thiazolo[5,4-b]pyridin-2-yl)phenyl)ethyl)-2-([^3H]methylsulfonyl)benzamide, was performed as described below: […]

[2] = tested on: IL-23-stimulated Kit225 T cells with STAT-dependent luciferase reporter; experiment: Kit225 T cell assay, IL-23 stimulated STAT-dependent luciferase reporter; format: cell-based, human; conditions: Homo sapiens, KIT225, read-out: IL-23 Kit225 Reporter, LE (IC50, uM)
Experimental: (§1) Kit225 T cells with a stably-integrated STAT-dependent luciferase reporter were plated in RPMI (GIBCO) containing 10% heat-inactivated FBS (GIBCO) and 100 U/mL PenStrep (GIBCO). The cells were then stimulated with either 20 ng/mL human recombinant IL-23 or 200 U/mL human recombinant IFNα (PBL InterferonSource) for 5-6 hours. Luciferase expression was measured using the STEADY-GLO® Luciferase Assay System (PROMEGA®) according to the manufacturer's instructions.

[3] = tested on: IFNα-stimulated Kit225 T cells with STAT-dependent luciferase reporter; experiment: Kit225 T cell assay, IFNα stimulated STAT-dependent luciferase reporter; format: cell-based, human; conditions: Homo sapiens, KIT225, read-out: IFNa Kit225 Reporter, LE (IC50, uM)
Experimental: as §1

T1 sequence (P29597 with tags, fused parts or gaps): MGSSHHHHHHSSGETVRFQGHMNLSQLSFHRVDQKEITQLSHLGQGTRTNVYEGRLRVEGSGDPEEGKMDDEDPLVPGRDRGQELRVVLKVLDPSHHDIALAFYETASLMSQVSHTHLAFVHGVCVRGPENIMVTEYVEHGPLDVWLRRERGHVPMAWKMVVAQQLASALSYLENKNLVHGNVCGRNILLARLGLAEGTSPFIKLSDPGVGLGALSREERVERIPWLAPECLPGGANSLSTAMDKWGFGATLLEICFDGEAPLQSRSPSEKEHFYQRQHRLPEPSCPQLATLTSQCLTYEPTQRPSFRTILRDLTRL

CNc1cc(Nc2sc(C)nc2C(=O)NC(C)C)nn2c(C(=O)NC3CC3)cnc12 [Example 85]
EC50 [1]: 26.7 nM | IC50 [2]: 0.256 µM | IC50 [3]: 0.224 µM

— patent US10836770B2, “Imidazopyridazine compounds useful as modulators of IL-12, IL-23 and/or INF alpha responses” (priority 2016, dated 2020)
